In patent publication EP4603105A1, “PHARMACEUTICAL COMPOSITION CONTAINING CYCLIC COMPOUND HAVING SELECTIVE KRAS INHIBITORY EFFECT AGAINST HRAS AND NRAS” (CHUGAI SEIYAKU KABUSHIKI KAISHA, priority 2022, dated 2024):
Where a SMILES comes first, the peptide text is derived from it. Bridges are numbered along the chain shown (N, C = ends). [ ]: non-standard residue; d: D form. The star is where a group is joined. hPhe(3-Cl-4-CF3) = N[C@@H](CCc1ccc(C(F)(F)F)c(Cl)c1)C(=O)O; NPrPhe(4-CF3) = CCCN[C@@H](Cc1ccc(C(F)(F)F)cc1)C(=O)O; hPhe(3,4-Cl2) = N[C@@H](CCc1ccc(Cl)c(Cl)c1)C(=O)O; NMeGly(cPent) = CN[C@H](C(=O)O)C1CCCC1; Pro(4,4-F2) = O=C(O)[C@@H]1CC(F)(F)CN1; NMeNva(3-Et) = CCC(CC)[C@H](NC)C(=O)O; NMeD = CN[C@@H](CC(=O)O)C(=O)O; NMeL = CN[C@@H](CC(C)C)C(=O)O; Morpholide = C1CN(*)CCO1; NMeA = CN[C@@H](C)C(=O)O; Ac5c = NC1(C(=O)O)CCCC1; Aze = O=C(O)[C@@H]1CCN1; Ac4c = NC1(C(=O)O)CCC1; Sar = CNCC(=O)O

Assays:
[1] = molecular target: GDP-bound NRAS wild-type protein (Homo sapiens, UniProt P01111); assay: Binding to NRAS by surface plasmon resonance (SPR), KD and KD ratio to KRAS
Summary of the method: (§1)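 GDP-bound biotin-Avi RAS captured at ~100–300 RU, 30°C, pH 7.4 HBS containing 10 µM GDP, 10 mM MgCl2, 1 mM DTT, 0.01% Tween 20 and 4% DMSO. KD by 1:1 fitting.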

[2] = tested on: human lung cancer strain NCI-H441; assay type: cell-based
Summary of the method: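 Readout: […] after the ATP-based reagent. Compound: serial dilutions in dimethyl sulfoxide.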

HRAS wild-type protein = HRAS wild-type protein (Homo sapiens, UniProt P01112); assay: Binding to HRAS by surface plasmon resonance (SPR), KD and KD ratio to KRAS
Summary of the method: as §1

[3] = ratio of KD for GDP-bound NRAS wild-type protein to KD for KRAS
[4] = ratio of KD for HRAS wild-type protein to KD for KRAS
[5] = ratio of KD value for GDP-bound NRAS wild-type protein to KD value for KRAS (SPR)
[6] = ratio of KD value for HRAS wild-type protein to KD value for KRAS (SPR)

Chain of GDP-bound NRAS wild-type protein (P01111 whole entry): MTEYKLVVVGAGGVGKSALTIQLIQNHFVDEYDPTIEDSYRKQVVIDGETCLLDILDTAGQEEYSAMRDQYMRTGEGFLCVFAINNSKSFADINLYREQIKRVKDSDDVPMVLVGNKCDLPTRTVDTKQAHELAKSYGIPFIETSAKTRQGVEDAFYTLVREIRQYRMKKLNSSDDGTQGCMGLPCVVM
Chain of HRAS wild-type protein (P01112 whole entry): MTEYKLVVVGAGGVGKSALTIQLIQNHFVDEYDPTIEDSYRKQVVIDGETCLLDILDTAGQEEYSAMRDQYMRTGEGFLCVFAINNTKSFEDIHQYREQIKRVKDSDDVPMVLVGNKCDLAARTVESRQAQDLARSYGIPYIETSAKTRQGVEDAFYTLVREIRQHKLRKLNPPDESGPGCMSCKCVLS

| Structure (SMILES) | IC50 [2] [nM] | NRAS /KRAS [1, 3] | HRAS /KRAS (HRAS wild-type protein; [4]) | NRAS /KRAS [1, 5] | HRAS /KRAS (HRAS wild-type protein; [6]) | NRAS /KRAS ([1]; ratio of the KD value with respect to GDP-bound NRAS wild-type protein to the KD value with respect to KRAS) | HRAS /KRAS (HRAS wild-type protein; ratio of the KD value with respect to HRAS wild-type protein to the KD value with respect to KRAS) |
| --- | --- | --- | --- | --- | --- | --- | --- |
| CCC[C@H]1C(=O)N[C@@H]([C@@H](C)CC)C(=O)N(C)CC(=O)N(C)[C@H]2C/C=C\CCN(C2=O)[C@@H](Cc2ccc(C(F)(F)F)cc2)C(=O)N(C)CC(=O)N[C@@H](CCc2cc(F)c3c(c2)CCC3)C(=O)N2C[C@H](OCC)C[C@H]2C(=O)NC2(CC(C)(C)C2)C(=O)N(C)[C@@H](C2CCCC2)C(=O)N(C)[C@H](C(=O)N(C)C)CC(=O)N1C [PP2849] | 28.2 | A (a compound having 10 or more and less than 20 is denoted as A) | A (a compound having 10 or more and less than 20 is denoted as A) |  |  |  |  |
| CCC[C@H]1C(=O)N[C@@H]([C@@H](C)CC)C(=O)N(C)CC(=O)N(C)[C@H]2C/C=C\CCN(C2=O)[C@@H](Cc2ccc(C)cc2)C(=O)N(C)CC(=O)N[C@@H](CCc2ccc(C(F)(F)F)c(OC)c2)C(=O)N2C[C@H](OCC)C[C@H]2C(=O)N(C)C2(CCC2)C(=O)N(C)[C@@H](C2CCCC2)C(=O)N(C)[C@H](C(=O)N2CCCCC2)CC(=O)N1C [PP3104] | 3.8 | A (a compound having 10 or more and less than 20 is denoted as A) | A (a compound having 10 or more and less than 20 is denoted as A) |  |  |  |  |
| CCC[C@H]1C(=O)N[C@@H]([C@@H](C)CC)C(=O)N(C2CC2)CC(=O)N(C)[C@H]2C/C=C\CCN(C2=O)[C@@H](Cc2ccc(C(F)(F)F)cc2)C(=O)N(C)CC(=O)N[C@@H](CCc2ccc(Cl)c(Cl)c2)C(=O)N2C[C@H](OCC)C[C@H]2C(=O)NC2(CC(C)(C)C2)C(=O)N(C)[C@@H](CC2CCC2)C(=O)N(C)[C@H](C(=O)N(C)C)CC(=O)N1C [PP2819] | 102 | A (a compound having 10 or more and less than 20 is denoted as A) | A (a compound having 10 or more and less than 20 is denoted as A) |  |  |  |  |
| CCO[C@@H]1C[C@H]2C(=O)NC3(CCC3)C(=O)N(C)[C@@H](C3CCCC3)C(=O)N(C)[C@H](C(=O)N3CCOCC3)CC(=O)N(C)[C@@H](COC)C(=O)N[C@@H]([C@@H](C)CC)C(=O)NCC(=O)N(C)[C@H]3CCCCCN(C3=O)[C@@H](Cc3ccc(C(F)(F)F)cc3)C(=O)N(C)CC(=O)N[C@@H](CCc3cc(F)c(C(F)(F)F)c(F)c3)C(=O)N2C1 [PP0858] | 52.5 | B (a compound having 3 or more and less than 10 is denoted as B) | B (a compound having 3 or more and less than 10 is denoted as B) |  |  |  |  |
| CC[C@H](C)[C@@H]1NC(=O)[C@H](CC2CC2)N(C)C(=O)C[C@@H](C(=O)N(C)C)N(C)C(=O)[C@H](C2CCCC2)N(C)C(=O)C2(CCC2)NC(=O)[C@@H]2[C@@H](OCC(F)F)CCN2C(=O)[C@H](CCc2cc(F)c(C(F)(F)F)c(F)c2)NC(=O)CN(C)C(=O)[C@H](Cc2ccc(C(F)(F)F)cc2)N2CC/C=C\C[C@@H](C2=O)N(C)C(=O)CN(C)C1=O [PP1533] | 23.8 |  |  | AA (a compound having 20 or more is denoted as AA) | A (a compound having 10 or more and less than 20 is denoted as A) |  |  |
| CCCN1C(=O)CN(C)C(=O)[C@@H]2CCN2C(=O)[C@H]([C@@H](C)CC)NC(=O)[C@H](CC(C)C)N(C)C(=O)C[C@@H](C(=O)N2CCOCC2)NC(=O)[C@H](C2CCCC2)N(C)C(=O)C2(CCCC2)NC(=O)[C@@H]2CC(F)(F)CN2C(=O)[C@H](CCc2ccc(C(F)(F)F)c(Cl)c2)NC(=O)CN(C)C(=O)[C@@H]1Cc1ccc(C(F)(F)F)cc1 [PP0339] ([NMeL]I[Aze][Sar][NPrPhe(4-CF3)][Sar][hPhe(3-Cl-4-CF3)][Pro(4,4-F2)][Ac5c][NMeGly(cPent)]D-Morpholide; lactam N-11) | 158 | B (a compound having 3 or more and less than 10 is denoted as B) | B (a compound having 3 or more and less than 10 is denoted as B) |  |  |  |  |
| CCC[C@H]1C(=O)N[C@@H]([C@@H](C)CC)C(=O)N(C2CC2)CC(=O)N(C)[C@H]2C/C=C\CCN(C2=O)[C@@H](Cc2ccc(C)cc2)C(=O)N(C)CC(=O)N[C@@H](CCc2cc(F)c(C(F)(F)F)c(F)c2)C(=O)N2C[C@H](OCC)C[C@H]2C(=O)N(C)C2(CCC2)C(=O)N(C)[C@@H](C2CCCC2)C(=O)N(C)[C@H](C(=O)N2CCCCC2)CC(=O)N1C [PP3111] | 17.8 | A (a compound having 10 or more and less than 20 is denoted as A) | A (a compound having 10 or more and less than 20 is denoted as A) |  |  |  |  |
| CCCN1C(=O)CN(C)C(=O)CN(C)C(=O)[C@H]([C@@H](C)CC)NC(=O)[C@H](CC(C)C)N(C)C(=O)C[C@@H](C(=O)N2CCOCC2)N(C)C(=O)[C@H](C(CC)CC)N(C)C(=O)C2(CCC2)NC(=O)[C@@H]2CCCN2C(=O)[C@H](CCc2ccc(C(F)(F)F)c(Cl)c2)NC(=O)CN(C)C(=O)[C@@H]1Cc1ccc(C(F)(F)F)cc1 [PP1958] ([NMeL]I[Sar][Sar][NPrPhe(4-CF3)][Sar][hPhe(3-Cl-4-CF3)]P[Ac4c][NMeNva(3-Et)][NMeD]-Morpholide; lactam N-11) | 57.8 |  |  |  |  | B (a compound having 3 or more and less than 10 is denoted as B) | B (a compound having 3 or more and less than 10 is denoted as B) |
| CCC[C@H]1C(=O)N[C@@H](C2CCCCC2)C(=O)N(C)CC(=O)N(C)[C@H]2C/C=C\CCN(C2=O)[C@@H](Cc2ccc(C(F)(F)F)cc2)C(=O)N(C)CC(=O)N[C@@H](CCc2ccc(C(F)(F)F)c(Cl)c2)C(=O)N2C[C@H](OCC)C[C@H]2C(=O)NC2(CC(C)(C)C2)C(=O)N(C)[C@@H]([C@@H](C)CC)C(=O)N(C)[C@H](C(=O)N(C)C)CC(=O)N1C [PP3015] | 103 | AA (a compound having 20 or more is denoted as AA) | A (a compound having 10 or more and less than 20 is denoted as A) |  |  |  |  |

More lines, in order of falling IC50 [2], values ahead:

| IC50 [2] [nM] | Structure (SMILES) | NRAS /KRAS [1, 3] | HRAS /KRAS (HRAS wild-type protein; [4]) | NRAS /KRAS [1, 5] | HRAS /KRAS (HRAS wild-type protein; [6]) | NRAS /KRAS ([1]; ratio of the KD value with respect to GDP-bound NRAS wild-type protein to the KD value with respect to KRAS) | HRAS /KRAS (HRAS wild-type protein; ratio of the KD value with respect to HRAS wild-type protein to the KD value with respect to KRAS) |
| --- | --- | --- | --- | --- | --- | --- | --- |
| 18.7 | CCO[C@@H]1C[C@H]2C(=O)NC3(CCC3)C(=O)N(C)[C@@H](C3CCCC3)C(=O)N(C)[C@H](C(=O)N3CCOCC3)CC(=O)N(C)[C@@H](CC(C)C)C(=O)N[C@@H]([C@@H](C)CC)C(=O)N3CC[C@H]3C(=O)N(C)[C@H]3CC(C)=CCN(C3=O)[C@@H](Cc3ccc(C(F)(F)F)cc3)C(=O)N(C)CC(=O)N[C@@H](CCc3cc(F)c(C(F)(F)F)c(F)c3)C(=O)N2C1 [PP1040] | C (A compound having a KD ratio of 0.1 or more and less than 3 is denoted as C) | C (A compound having a KD ratio of 0.1 or more and less than 3 is denoted as C) |  |  |  |  |
| 8.9 | CC[C@H](C)[C@@H]1NC(=O)[C@@H]2CCC/C=C/c3ccc(cc3)C[C@@H](C(=O)N(C)CC(=O)N[C@@H](CCc3ccc(Cl)c(Cl)c3)C(=O)N3CCC[C@H]3C(=O)NC3(CC(C)(C)C3)C(=O)N(C)[C@@H](C3CCCC3)C(=O)N(C)[C@H](C(=O)N(C)CC)CC(=O)N2C)N2CC/C=C\C[C@@H](C2=O)N(C)C(=O)CN(C)C1=O [PP2601] | A (a compound having 10 or more and less than 20 is denoted as A) | A (a compound having 10 or more and less than 20 is denoted as A) |  |  |  |  |
| 7.6 | CCC[C@H]1C(=O)N[C@@H]([C@@H](C)CC)C(=O)N(C)CC(=O)N(C)[C@H]2C/C=C\CCN(C2=O)[C@@H](Cc2ccc(C)cc2)C(=O)N(C)CC(=O)N[C@@H](CCc2cc(F)c(C(F)(F)F)c(F)c2)C(=O)N2C[C@H](C)C[C@H]2C(=O)N(C)C2(CCC2)C(=O)N(C)[C@@H](C2CCCC2)C(=O)N(C)[C@H](C(=O)N(C)C)CC(=O)N1C [PP1799] |  |  | B (a compound having 3 or more and less than 10 is denoted as B) | B (a compound having 3 or more and less than 10 is denoted as B) |  |  |
| 7.5 | CC[C@H](C)[C@@H]1NC(=O)[C@H](CC2CC2)N(C)C(=O)C[C@@H](C(=O)N(C)CC)N(C)C(=O)[C@H](C2CCCC2)N(C)C(=O)C2(CCC2)NC(=O)[C@@H]2CC(F)(F)CN2C(=O)[C@H](CCc2cc(F)c(C(F)(F)F)c(F)c2)NC(=O)CN(C)C(=O)[C@H](Cc2ccc(C(F)(F)F)cc2)N2CC/C=C\C[C@@H](C2=O)N(C)C(=O)CN(C)C1=O [PP1538] |  |  | A (a compound having 10 or more and less than 20 is denoted as A) | B (a compound having 3 or more and less than 10 is denoted as B) |  |  |
| 7.4 | CCCO[C@@H]1C[C@H]2C(=O)NC3(CC(C)(C)C3)C(=O)N(C)[C@@H](C3CCCC3)C(=O)N(C)[C@H](C(=O)N(C)C)CC(=O)N(C)[C@H]3CCCCc4ccc(cc4)C[C@@H](C(=O)N(C)CC(=O)N[C@@H](CCc4ccc(Cl)c(Cl)c4)C(=O)N2C1)N1CC/C=C\C[C@@H](C1=O)N(C)C(=O)CN(C)C(=O)[C@H]([C@@H](C)CC)NC3=O [PP3092] | A (a compound having 10 or more and less than 20 is denoted as A) | A (a compound having 10 or more and less than 20 is denoted as A) |  |  |  |  |
| 4.1 | CCCN1C(=O)[C@@H]2CCN2C(=O)[C@H](C)N(C)C(=O)[C@H]([C@@H](C)CC)NC(=O)[C@H](CC(C)C)N(C)C(=O)C[C@@H](C(=O)N2CCOCC2)N(C)C(=O)[C@H](C2CCCC2)N(C)C(=O)C2(CCCC2)NC(=O)[C@@H]2CCCN2C(=O)[C@H](CCc2ccc(Cl)c(Cl)c2)NC(=O)CN(C)C(=O)[C@@H]1Cc1ccc(C(F)(F)F)cc1 [PP0227] ([NMeL]I[NMeA][Aze][NPrPhe(4-CF3)][Sar][hPhe(3,4-Cl2)]P[Ac5c][NMeGly(cPent)][NMeD]-Morpholide; lactam N-11) | C (A compound having a KD ratio of 0.1 or more and less than 3 is denoted as C) | B (a compound having 3 or more and less than 10 is denoted as B) |  |  |  |  |
